Here are results for one compound from patent publication US9283037B2, “Laser microporator” (PANTEC BIOSOLUTIONS AG, priority 2006, dated 2016).

This data set is described as follows: Serum concentration of drug over time after transdermal patch application onto laser-microporated skin (FIG. 9a-9b). As to conditions: over about two hours. The class given is in vivo, human. The procedure:
The drug is entering the permeation surface by passive diffusion. The amount of drug entering the permeation surface is mainly determined by the permeation surface A(t) over time. Therefore, the serum concentration as a function of time can be determined by an appropriate poration of the skin 1 with an initial microporation at time TP.
FIG. 9a to 9b show the administration of the same amount of drug, for example 100 mg acetylsalicylic acid, the drug being arranged on the skin 1 as disclosed in FIG. 5e. Depending on the permeation surface A(t) as a function of time, the level of the serum concentration as well as the time period within which the drug is released, can be predescribed. In FIG. 9a the permeation surface A(t) is chosen such that the maximal serum concentration is about 25 g/l over a short period of time of about two hours. […] A further advantage is that the same amount of drug, e.g. the same patch, applied onto the skin 1, causes a different serum concentration, depending only on the function of the permeation surface A over time. This allows administering the same drug in different ways. This also allows administering the same drug in an individual way, in that the permeation surface is created depending on individual parameters of the person the drug is applied to.

With `CC(=O)Oc1ccccc1C(=O)O` [acetylsalicylic acid], the maximal serum concentration result is recorded as “about 25 g/l” (FIG. 9a, 100 mg acetylsalicylic acid in patch on microporated skin, transdermal application, chosen permeation surface A(t)) and “about 30 g/l” (FIG. 9b, fast application (turbo), same amount of drug (100 mg) in patch on microporated skin).
